Assay results from ChEMBL document CHEMBL4419177, “Crystalline forms of a lysyl oxidase-like 2 inhibitor and methods of making” (2018).

Tests used:
Assay type in all cases: physicochemical
[1] = Solubility of compound ( form 1 ) in 150 uL water at 30 mg; conditions: buffer
[2] = Stability under 3 month accelerated condition (40 degC/75% RH ) assessed as changes in purity or absorption of moisture; conditions: 2191.5 h
[3] = Solubility of compound ( form 1 ) in 10 uL water at 10 mg; conditions: buffer
[4] = Stability of the compound as a solid form exposed to heat at 100 degC incubated for 24 hrs by HPLC analysis
[5] = Stability under 2-year ICH study conditions assessed as chemical or physical changes; conditions: 17532 h
[6] = Stability of the compound as a solid form exposed to light (max 365 nm) incubated for 24 hrs by HPLC analysis
[7] = Stability of the compound as a solid form exposed to heat at 50 degC incubated for 24 hrs by HPLC analysis
[8] = Stability under 1-year ICH study conditions assessed as chemical or physical changes; conditions: 8766 h

| solubility [1] | Stability [2] | solubility [3] | Stability [4] | Stability [5] | Stability [6] | Stability [7] | Stability [8] | Compound |
| --- | --- | --- | --- | --- | --- | --- | --- | --- |
| Soluble | Stable | Soluble | – | – | – | – | – | Cl.NCc1cc(Oc2cccc(C(=O)N3C[C@@H](O)[C@H](F)C3)c2)nc(C(F)(F)F)c1 |
| – | – | – | Stable | Stable | Stable | Stable | Stable | CS(=O)(=O)O.NCc1cc(Oc2cccc(C(=O)N3C[C@@H](O)[C@H](F)C3)c2)nc(C(F)(F)F)c1 |
